Laboratory results as given in paper PMC4932603, “Identification, Characterization, and X-ray Crystallographic Analysis of a Novel Type of Mannose-Specific Lectin CGL1 from the Pacific Oyster Crassostrea gigas” (Scientific Reports, 2016).

Tests used:
nCGL1 (native CGL1) = molecular target: T1, nCGL1 (native CGL1) (Magallana gigas, UniProt K1QRB6); assay: isothermal titration calorimetry; format: binding; conditions: read-out: K / × 10^3 M^-1 (converted)
T1 construct: gene CGI_10011001; native purification from oyster bodies (mannose-Cellulofine)
Text: isothermal titration calorimetry on nCGL1 (native CGL1)

[1] = molecular target: CGL1 (preparation not told: native or recombinant) (Crassostrea gigas); assay: dynamic light scattering (DLS) + other: small angle X-ray scattering (SAXS); in an aqueous solution

| Kd (nCGL1 (native CGL1)) | stoichiometry N [1] | Molecule |
| --- | --- | --- |
| 671 µM |  | CO[C@H]1O[C@H](CO)[C@@H](O)[C@H](O)[C@@H]1O [α-MeMan] |
|  | 2 | CGL1 (preparation not told: native or recombinant) (natural protein) |
